Patent US7300947B2, “N-dihydroxyalkyl-substituted 2-oxo-imidazole derivatives” (Banyu Pharmaceutical Co., Ltd., priority 2005, dated 2007)
Where a name gives a salt, the structure may show the parent alone.

Experiment: Metabolic stability test using human liver microsome
Format: in vitro ADME
Settings: human liver microsome 0.25 mg protein/mL, 1 μM test compound, 37° C., after 30 minutes' reaction
Description: Pharmacological Test Example 3 (Metabolic Stability Test) Metabolic stability of test compounds was examined using human liver microsome. A 100 mM potassium phosphate buffer (pH 7.4) comprising 10 mM [MUT], 1.0 mM NADP^+, 10 units/mL [MUT] DH, 3.0 mM MgCl2 and 0.25 mg protein/mL of human liver microsome was prepared, each 392 μL of which was poured into plural vessels and preincubated at 37° C. for 5 minutes. […] At the initiation time and 30 minutes thereafter of the reaction, 150 μL of each reaction solution was added to 450 μL of ethanol to suspend the reaction, followed by centrifugal separation (12,000 g, 12 minutes, 4° C.). Resulting supernatant was analyzed with LC/MS/MS. Based on the peak area of the test compound in each sample at the initiating time of the reaction as 100%, the test compound's residual ratio in the sample after 30 minutes' reaction was calculated. Residual ratio(%)= [peak area(after 30 minutes' reaction)/ peak area(0 minute's reaction)]×100.

In the case of `CC(O)(CO)Cn1c(=O)n(C2CCN(CC3CCCCC34CC4)CC2)c2ccccc21` (single isomer, unassigned) [Example 4, 1-[(2S or 2R)-2,3-dihydroxy-2-methylpropyl]-3-{1-[(4S)-spiro[2.5]oct-4-ylmethyl]piperidin-4-yl}-1,3-dihydro-2H-benzimidazol-2-one(2R,3R)-3-carboxy-2,3-dihydroxypropionic acid salt], the “Residual Ratio” value was 72%.
